Measurements: ChEMBL document CHEMBL6153063 (Eur J Med Chem, 2025)
pIC50, pKd: −log10 of the molar value. Activity calls are given as the source filed them. No cut-off for these calls is given here.

Columns and labels:
[1] = test system: Gilteritinib-resistant MOLM-14; assay: Induction of apoptosis in human Gilteritinib-resistant MOLM-14 cells expressing FLT3 F691L mutant upto 200 nM incubated for 48 hrs by Annexin V/7AAD staining based flow cytometry; assay type: functional, cell-based
[2] = test system: MV4-11; assay: Induction of apoptosis in human MV4-11 cells assessed as viable cells at 200 nM incubated for 48 hrs by Annexin V/7AAD staining based flow cytometry (reference value: 95.6 %); assay type: functional; conditions: read-out: Activity
[3] = Inhibition of cell viability in human Gilteritinib-resistant MOLM-14 cells expressing FLT3 F691L mutant incubated for 48 hrs by Alamar blue assay; assay type: functional, cell-based; conditions: Gilteritinib-resistant MOLM-14, 48 h
[4] = test system: MV4-11; assay: Inhibition of cell viability in human MV4-11 cells incubated for 48 hrs by Alamar blue assay; assay type: functional, cell-based; conditions: MV4-11, 48 h
[5] = test system: MOLM-14; assay: Inhibition of cell viability in human MOLM-14 cells incubated for 48 hrs by Alamar blue assay; assay type: functional, cell-based; conditions: MOLM-14, 48 h
[6] = test system: MV4-11; assay: Induction of apoptosis in human MV4-11 cells assessed as early apoptotic cells at 200 nM incubated for 48 hrs by Annexin V/7AAD staining based flow cytometry (reference value: 2.3 %); assay type: functional
[7] = test system: Venetoclax-resistant MV4-11; assay: Induction of apoptosis in human Venetoclax-resistant MV4-11 cells overexpressing Bcl-2 upto 200 nM incubated for 48 hrs by Annexin V/7AAD staining based flow cytometry; assay type: functional, cell-based
[8] = molecular target: Apoptosis regulator Bcl-2 (Homo sapiens, UniProt P10415); assay: Binding affinity to Bcl-2 (unknown origin) assessed as dissociation constant incubated for 1 hr by KINOMEscan assay
Apoptosis regulator Bcl-2, sequence (P10415 whole entry): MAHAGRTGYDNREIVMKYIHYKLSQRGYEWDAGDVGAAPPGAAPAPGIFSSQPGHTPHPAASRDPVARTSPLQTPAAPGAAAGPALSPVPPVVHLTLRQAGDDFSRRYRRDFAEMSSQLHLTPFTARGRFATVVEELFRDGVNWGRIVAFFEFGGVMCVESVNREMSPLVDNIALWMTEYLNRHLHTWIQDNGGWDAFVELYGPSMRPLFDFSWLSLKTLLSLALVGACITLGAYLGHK

[9] = molecular target: T1, Receptor-type tyrosine-protein kinase FLT3 (Homo sapiens, UniProt P36888); assay: Binding affinity to FLT3 (unknown origin) assessed as dissociation constant incubated for 1 hr by KINOMEscan assay
T1 sequence (P36888 whole entry): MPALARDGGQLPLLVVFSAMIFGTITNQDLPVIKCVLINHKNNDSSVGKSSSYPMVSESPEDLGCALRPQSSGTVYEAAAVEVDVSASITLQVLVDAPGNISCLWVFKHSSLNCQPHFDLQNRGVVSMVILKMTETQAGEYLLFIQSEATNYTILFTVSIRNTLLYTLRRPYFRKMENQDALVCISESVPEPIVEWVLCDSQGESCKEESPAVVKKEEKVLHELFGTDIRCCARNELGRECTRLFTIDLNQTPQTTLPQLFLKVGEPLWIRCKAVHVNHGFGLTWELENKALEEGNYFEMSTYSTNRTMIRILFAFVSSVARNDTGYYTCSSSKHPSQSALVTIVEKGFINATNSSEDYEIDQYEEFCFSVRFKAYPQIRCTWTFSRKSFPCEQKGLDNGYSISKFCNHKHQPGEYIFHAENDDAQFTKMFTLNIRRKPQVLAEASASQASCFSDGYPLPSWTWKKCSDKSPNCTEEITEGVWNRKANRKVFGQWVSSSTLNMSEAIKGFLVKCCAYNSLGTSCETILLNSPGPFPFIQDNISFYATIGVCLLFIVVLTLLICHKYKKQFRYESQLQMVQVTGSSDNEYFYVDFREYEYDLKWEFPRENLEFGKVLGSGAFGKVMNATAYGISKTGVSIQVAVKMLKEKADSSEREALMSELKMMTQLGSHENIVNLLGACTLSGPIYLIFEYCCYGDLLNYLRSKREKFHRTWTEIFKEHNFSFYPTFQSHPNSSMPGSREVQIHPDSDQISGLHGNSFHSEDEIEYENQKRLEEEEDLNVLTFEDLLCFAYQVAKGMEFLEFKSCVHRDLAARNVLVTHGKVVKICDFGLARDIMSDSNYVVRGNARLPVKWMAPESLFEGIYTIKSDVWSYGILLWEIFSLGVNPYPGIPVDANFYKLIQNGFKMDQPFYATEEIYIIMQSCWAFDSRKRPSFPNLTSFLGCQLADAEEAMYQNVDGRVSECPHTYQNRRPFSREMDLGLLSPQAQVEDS

[10] = Inhibition of cell viability in human Venetoclax-resistant MV4-11 cells overexpressing Bcl-2 incubated for 48 hrs by Alamar blue assay; assay type: functional, cell-based; conditions: Venetoclax-resistant MV4-11, 48 h
[11] = test system: MV4-11; assay: Induction of apoptosis in human MV4-11 cells assessed as late apoptotic cells at 200 nM incubated for 48 hrs by Annexin V/7AAD staining based flow cytometry (reference value: 1.7 %); assay type: functional
[12] = test system: MV4-11; assay: Induction of apoptosis in human MV4-11 cells assessed as late apoptotic cells at 200 nM incubated for 48 hrs in presence of VEN by Annexin V/7AAD staining based flow cytometry (reference value: 1.7 %); assay type: functional
[13] = test system: MV4-11; assay: Induction of apoptosis in human MV4-11 cells assessed as viable cells at 200 nM incubated for 48 hrs in presence of VEN by Annexin V/7AAD staining based flow cytometry (reference value: 95.6 %); assay type: functional; conditions: read-out: Activity
[14] = cells; conditions: Homo sapiens, Venetoclax-resistant MV4-11, 48 h
[15] = test system: MV4-11; assay: Induction of apoptosis in human MV4-11 cells assessed as early apoptotic cells at 200 nM incubated for 48 hrs in presence of VEN by Annexin V/7AAD staining based flow cytometry (reference value: 2.3 %); assay type: functional
[16] = test system: MOLM-14; assay: Inhibition of cell viability in human MOLM-14 cells incubated for 48 hrs in presence of VEN by Alamar blue assay; conditions: MOLM-14, 48 h
[17] = test system: MV4-11; assay: Inhibition of cell viability in human MV4-11 cells incubated for 48 hrs in presence of VEN by Alamar blue assay; conditions: MV4-11, 48 h
[18] = cells; conditions: Homo sapiens, Gilteritinib-resistant MOLM-14, 48 h
[19] = test system: MV4-11; assay: Induction of apoptosis in human MV4-11 cells assessed as early apoptotic cells at 200 nM incubated for 48 hrs in presence of GIL by Annexin V/7AAD staining based flow cytometry (reference value: 2.3 %); assay type: functional
[20] = Inhibition of cell viability in human Gilteritinib-resistant MOLM-14 cells expressing FLT3 F691L mutant incubated for 48 hrs in presence of GIL by Alamar blue assay; assay type: functional, cell-based; conditions: Gilteritinib-resistant MOLM-14, 48 h
[21] = test system: MV4-11; assay: Inhibition of cell viability in human MV4-11 cells incubated for 48 hrs in presence of GIL by Alamar blue assay; conditions: MV4-11, 48 h
[22] = test system: MV4-11; assay: Induction of apoptosis in human MV4-11 cells assessed as viable cells at 200 nM incubated for 48 hrs in presence of GIL by Annexin V/7AAD staining based flow cytometry (reference value: 95.6 %); assay type: functional; conditions: read-out: Activity
[23] = test system: MV4-11; assay: Induction of apoptosis in human MV4-11 cells assessed as late apoptotic cells at 200 nM incubated for 48 hrs in presence of GIL by Annexin V/7AAD staining based flow cytometry (reference value: 1.7 %); assay type: functional
[24] = Inhibition of cell viability in human Venetoclax-resistant MV4-11 cells overexpressing Bcl-2 incubated for 48 hrs in presence of GIL by Alamar blue assay; assay type: functional, cell-based; conditions: Venetoclax-resistant MV4-11, 48 h
[25] = test system: MOLM-14; assay: Inhibition of cell viability in human MOLM-14 cells incubated for 48 hrs in presence of GIL by Alamar blue assay; assay type: functional, cell-based; conditions: MOLM-14, 48 h

SMILES	pIC50 [4]	pIC50 [5]	pIC50 [3]	pIC50 [10]	other results
CC1(C)CCC(CN2CCN(c3ccc(C(=O)NS(=O)(=O)c4ccc(NCC5CCOCC5)c([N+](=O)[O-])c4)c(Oc4cnc5[nH]ccc5c4)c3)CC2)=C(c2ccc(Cl)cc2)C1 [VENETOCLAX]		5.77	5.70	6.12	Activity [19]: 31.1%; pIC50 [20]: 7.20; pIC50 [21]: 8.59; viability at 0.2 µM [22]: 0.4%; Activity [23]: 66.9%; pIC50 [24]: 8.06; pIC50 [25]: 7.79
CCc1nc(C(N)=O)c(Nc2ccc(N3CCC(N4CCN(C(=O)CCCCCCNc5ccc(S(=O)(=O)NC(=O)c6ccc(N7CCN(CC8=C(c9ccc(Cl)cc9)CC(C)(C)CC8)CC7)cc6Oc6cnc7[nH]ccc7c6)cc5[N+](=O)[O-])CC4)CC3)c(OC)c2)nc1NC1CCOCC1	7.03	5.48	< 5.00	6.04	
CCc1nc(C(N)=O)c(Nc2ccc(N3CCC(N4CCN(C(=O)C5CCN(c6ccc(S(=O)(=O)NC(=O)c7ccc(N8CCN(CC9=C(c%10ccc(Cl)cc%10)CC(C)(C)CC9)CC8)cc7Oc7cnc8[nH]ccc8c7)cc6[N+](=O)[O-])CC5)CC4)CC3)c(OC)c2)nc1NC1CCOCC1	5.93	< 5.00	< 5.00	< 5.00	
CCc1nc(C(N)=O)c(Nc2ccc(N3CCN(C(=O)C4CCN(c5ccc(S(=O)(=O)NC(=O)c6ccc(N7CCN(CC8=C(c9ccc(Cl)cc9)CC(C)(C)CC8)CC7)cc6Oc6cnc7[nH]ccc7c6)cc5[N+](=O)[O-])CC4)CC3)c(OC)c2)nc1NC1CCOCC1	6.01	< 5.00	< 5.00	5.49	

Now those with a higher pIC50 [5], led by results:

pIC50 [4]	pIC50 [5]	SMILES	pIC50 [3]	pIC50 [10]	other results
7.47	5.97	CCc1nc(C(N)=O)c(Nc2ccc(N3CCC(N4CCN(C(=O)CNc5ccc(S(=O)(=O)NC(=O)c6ccc(N7CCN(CC8=C(c9ccc(Cl)cc9)CC(C)(C)CC8)CC7)cc6Oc6cnc7[nH]ccc7c6)cc5[N+](=O)[O-])CC4)CC3)c(OC)c2)nc1NC1CCOCC1	< 5.00	6.68	Activity [1]: inactive; viability at 0.2 µM [2]: 30.7%; Activity [6]: 25.7%; Activity [7]: inactive; pKd [8]: 9.04; pKd [9]: 6.69; Activity [11]: 42.1%
6.97	6.27	CCc1nc(C(N)=O)c(Nc2ccc(N3CCN(C(=O)CCCCCCNc4ccc(S(=O)(=O)NC(=O)c5ccc(N6CCN(CC7=C(c8ccc(Cl)cc8)CC(C)(C)CC7)CC6)cc5Oc5cnc6[nH]ccc6c5)cc4[N+](=O)[O-])CC3)c(OC)c2)nc1NC1CCOCC1	5.48	6.55	
7.83	7.59	CCc1nc(C(N)=O)c(Nc2ccc(N3CCC(N4CCN(C)CC4)CC3)c(OC)c2)nc1NC1CCOCC1 [GILTERITINIB]	6.89	7.27	Activity [12]: 66.9%; viability at 0.2 µM [13]: 0.4%; pIC50 [14]: 8.06; Activity [15]: 31.1%; pIC50 [16]: 7.79; pIC50 [17]: 8.59; pIC50 [18]: 7.20
7.26	6.58	CCc1nc(C(N)=O)c(Nc2ccc(N3CCN(C(=O)CNc4ccc(S(=O)(=O)NC(=O)c5ccc(N6CCN(CC7=C(c8ccc(Cl)cc8)CC(C)(C)CC7)CC6)cc5Oc5cnc6[nH]ccc6c5)cc4[N+](=O)[O-])CC3)c(OC)c2)nc1NC1CCOCC1	5.77	6.79	Activity [1]: inactive; viability at 0.2 µM [2]: 52.2%; Activity [6]: 18.6%; Activity [7]: inactive; pKd [8]: 8.37; pKd [9]: 7.20; Activity [11]: 27.9%
